These results are taken from patent US20240398894A1, “ANGIOGENIC CONTROL, PREFERABLY COMBINED WITH GLYCAEMIC CONTROL” (BIOTEMPT B.V., priority 2021, published 2024).

One series has as its system LPS-activity. The settings on record: cited from earlier work.
Series [1] relates to human pulmonary microvascular endothelial cells. The series is described as follows: Microvascular angiogenesis (sprouting) assay in Matrigel. As to conditions: for angiogenic activities (total tube length): Matrigel, increasing concentrations, t=24 h, data not shown; for angiogenic (core) activity in sprouting assay: human vascular endothelial cells, as demonstrated herein. It is filed as cell-based. How it is done: Human pulmonary microvascular endothelial cells (Hpmec, HUVE, or other vascular EC, may also be used) were cultured in EBM-2 medium (Lonza, CC-3156) supplemented with 10% FBS and all components present in the bullet kit (Lonza, CC-4147) containing human recombinant FGF-B, human recombinant VEGF, human recombinant R3-IGF-1, ascorbic acid, human recombinant EGF and GA-1000 (Gentamicin sulfate-Amphotericin). 24 hours prior to the assay Hpmec were starved in EBM-2 medium containing 0.5% FBS instead of 10% FBS. For introduction in the angiogenesis assay, endothelial cells were washed 2 times with warm PBS, trypsinized and resuspended in serum free EBM-2 medium. For the angiogenesis assay, Matrigel (Fisher Scientific, Landsmeer, The Netherlands #11523550) was diluted 1:1 in serum-free EBM-2 medium and plated in a 96-well plate (50 μL). After polymerization, the cells were combined with the experimental peptide fragments and added on top of the Matrigel (100 μL). Pictures of the microvascular network were taken after 24 hours of incubation with a 4× objective and analysed using the plug-in angiogenesis analyser in ImageJ.

A further series relates to mTOR. As to conditions: piglets; cited from earlier work.
Series [2] is described as follows: Distribution and elimination of intravenously injected [14C]-AQGV from mice. It is filed as in vivo, male CD-1 mice. How it is done:
The present study, which was conducted by TNO Biosciences, Utrechtseweg, Netherlands, was designed to provide data on the distribution and metabolism of [^14C]-AQGV (Ala-Gln-[1-^14C]Gly-Val) in male CD-1 mice following a single intravenous dose of 50 mg/kg. To this end, mice were sacrificed at 10, 30 and 60 minutes, and 6 and 24 hours after administration of radiolabeled AQGV, counts in various tissues were determined, and the radioactivity present in the urine and plasma were analyzed by HPLC.

A further series has as its system TNF-α and IL-6. The settings on record: rat, hemorrhagic shock; cited from earlier work.
A further series deals with human CD4+ cells. The series is described as follows: Human CD4+ lymphocyte-migration assay (modified Boyden chamber). The series is classed as cell-based. How it is done:
A: Synthetic human-C-peptide (1-31, having ERC-binding-motif LGGGPG) was tested in human CD4+ lymphocyte-migration assay together with negative and treatment controls: no C-peptide added, scrambled version of human C-peptide (1-31, lacking any xGxxPx motif) and pig-C-peptide (1-29, ˜74% similarity to human C-peptide but lacking any xGxxPx motif; alignment with human C-peptide shown herewith).
Freshly isolated human CD4+ cells were incubated for 3 h with the indicated C-peptide variants (10 nM) to assess the effect on cell migration in a modified Boyden chamber. Results are expressed as the mean±SEM, ****P<0.001 treatments vs. control.
B: Freshly isolated human CD4 cells were preincubated for 3 h with V14 peptide (10 μM) or lactose (10 mM) and then stimulated with C-peptide (1-31) for 3 H as indicated in (A). Results are expressed as the mean±SEM. *P<0.05, ****P<0.001 treatments vs. control, […] ###P<0.001 treatments vs. human C-peptide (1-31).

Series [3] deals with human umbilical vein endothelial cells. The settings on record: dose-dependent; cited from earlier work.
Series [4] has as its system streptozotocin-induced diabetic mice. As to conditions: supplement using osmotic pumps; cited from earlier work.
The next series relates to NOD mice. The settings on record: cited from earlier work.
Setting [5] is: after 10 minutes, 50 mg/kg i.v.

Where a SMILES comes first, the peptide text is derived from it.

Take VLPAAP: in the series with LPS-activity, the LPS-activity in vitro entry was “significantly inhibited”.

As for PGAYPG, in series [1], the “angiogenic activities (total tube length)” value (shortened to “angiogenic activities”) is given as “significantly induced angiogenic activities” and the “angiogenic (core) activity in sprouting assay” value (shortened to “angiogenic (core) activity”) was “have angiogenic core activities”.

With `C[C@H](N)C(=O)N[C@@H](CCC(N)=O)C(=O)O` [AQ, Alanyl-glutamine] (H-Ala-Gln-OH), the autophagy-inhibition entry in the series with mTOR is on record as “demonstrated”.

In the case of LGGGPG, the “angiogenic activities” value in [1] was “significantly induced angiogenic activities”.

As to Ala-Gln-[1-^14C]Gly-Val [[^14C]-AQGV], the “average total recovery of radioactivity” value in [2] (10 minutes after dose administration) turned out to be 83.2%; in [2] (30 minutes after dose administration), 70.5%; in series [2] (60 minutes after dose administration) it was 62.9%; in [2] (6 hours after dose administration), 52.6%; in series [2] (24 hours after dose administration), 50.8%. For the same compound, the “administered radioactivity excreted in feces” value in [2] (after 24 hours) is given as 2.6%. The “administered radioactivity excreted in urine” value in series [2] (after 24 hours) is 10.2%. Further, the “removal from the blood” value in series [2] (after intravenous injections) is reported as “rapidly removed”. Further, in [2] (blood, 10 minutes after single intravenous dose of 50 mg/kg), the “radioactivity in the blood, amount present if all of the counts were in intact peptide” value worked out at 17.2 µg/g. Besides, the “concentration of "peptide" (radioactivity) in kidneys” value in series [2] (setting [5]) came out at 362 µg/g; in series [2] (after 24 hours, 50 mg/kg i.v.) it was 61.9 µg/g. The “concentration of "peptide" (radioactivity) in liver” value in [2] (setting [5]) turned out to be 105 µg/g; in series [2] (after 24 hours, 50 mg/kg i.v.), 37.6 µg/g. For the same compound, the “concentration of "peptide" (radioactivity) in lung” value in series [2] (lung, after 10 minutes, 50 mg/kg i.v.) came to 75.2 µg/g. Also, the “time to full hydrolysis of the peptide after administration” value in [2] (mice) is 15 min. Besides, the “parent compound in plasma” value in series [2] (plasma after 10 minutes, HPLC, 50 mg/kg i.v.) is reported as “No parent compound could be detected”. For the same compound, the “concentration of "peptide" (radioactivity) in skin” value in series [2] (skin, after 24 hours, 50 mg/kg i.v.) came to 37.5 µg/g. Also, the “concentration of "peptide" (radioactivity) in spleen” value amounted to 74.7 µg/g in [2] (setting [5]) and 39.3 µg/g in series [2] (after 24 hours, 50 mg/kg i.v.). Moreover, the “concentration of "peptide" (radioactivity) in testis” value in series [2] (testis, after 10 minutes, 50 mg/kg i.v.) was 85.7 µg/g. Also, in [2] (thymus, after 24 hours, 50 mg/kg i.v.), the “concentration of "peptide" (radioactivity) in thymus” value is 43.1 µg/g. Moreover, in [2] (up to 24 hours), the “administered radioactivity exhaled as volatiles, most likely 14C-CO2” value is listed as “About 50%”. In addition, in [2] (urine, HPLC, 50 mg/kg i.v.), the “parent compound in urine” value is “No parent compound was detected”.

As to VAPALP, in the series with LPS-activity, the LPS-activity in vitro result is given as “significantly inhibited”.

Turning to LOGA, in the series on LPS-activity, the LPS-activity in vitro entry is “significantly inhibited”.

Regarding AQGV, the LPS-activity in vitro entry with LPS-activity is on record as “significantly inhibited”. In addition, in the series on TNF-α and IL-6, the “systemic release of IL-6” value was “significantly (p<0.001) prevented” and the “systemic release of TNF-α” value was “significantly (p<0.001) prevented”.

As to human C-peptide, the “effect on CD4+ lymphocyte migration” value with human CD4+ cells (10 nM, 3 h incubation) was “upregulating effect”. Also, in series [3], the “concentration of maximal effect on endothelial cell migration and tube formation” value is given as 0.5 nM. Moreover, the “rate of skin wound closure” value in [4] is recorded as “significantly increased”.

Take VGVAPG: in series [1], the “angiogenic activities” value was “significantly induced angiogenic activities” and the “angiogenic (core) activity” value is reported as “core-angiogenic activities have been demonstrated”.

As to VLPALA, the LPS-activity in vitro entry in the series with LPS-activity is reported as “significantly inhibited”.

In the case of `OC[C@H]1O[C@@H](O[C@H]2[C@H](O)[C@@H](O)C(O)O[C@@H]2CO)[C@H](O)[C@@H](O)[C@H]1O` (stereo partly drawn) [lactose], the “effect on CD4+-migratory effects of C-peptide” value in the series on human CD4+ cells (preincubated 3 h with V14 peptide (10 μM) or lactose (10 mM), then C-peptide (1-31)) is given as “blunted”.

For VLAALP, the LPS-activity in vitro result in the series on LPS-activity was “significantly inhibited”.

For the compound LAGV, the LPS-activity in vitro entry in the series with LPS-activity was “significantly inhibited”. Besides, in the series with TNF-α and IL-6, the “systemic release of IL-6” value is given as “significantly (p<0.001) prevented” and the “systemic release of TNF-α” value is “significantly (p<0.001) prevented”.

Consider ALPALP, for which, in the series with LPS-activity, the LPS-activity in vitro result was “significantly inhibited”.

As to LQAV, the LPS-activity in vitro result in the series on LPS-activity is “significantly inhibited”.

Regarding “VGVAPGVGVAPGVGVAPG [18-meric peptide derived from human elastin]”, the “angiogenic (core) activity” value in series [1] is “core-angiogenic activities have been demonstrated”.

Regarding VLPALP, the T1D-onset result in the series with NOD mice is recorded as “significantly (p<0.0001) delay”. Also, the LPS-activity in vitro entry in the series with LPS-activity was “significantly inhibited”.

Consider LQGV, for which the T1D-onset result with NOD mice is listed as “significantly (p<0.0001) delay”. The LPS-activity in vitro entry with LPS-activity is listed as “significantly inhibited”. In addition, in the series with TNF-α and IL-6, the “systemic release of IL-6” value is given as “significantly (p<0.001) prevented” and the “systemic release of TNF-α” value is “significantly (p<0.001) prevented”.

Regarding “GAYPGAPGAYPGAPAPGV [18-meric peptide derived from the human N-terminal fragment of galectin-3]”, the “angiogenic (core) activity” value in series [1] is listed as “have angiogenic core activities”.
